# Measurements published in patent US9216216B2, “LprG as a chaperone of immune adjuvants” (Case Western Reserve University, priority 2009, dated 2015).
# “Also recorded” adds a separate entry of the source.
# Tests used:
# [1] = test system: bone marrow-derived macrophages; format: cell-based, mice
# TLR2 [2] = molecular target: T1, TLR2 (Homo sapiens, UniProt O60603+Q15399); format: cell-based
# T1 construct: YFP; expressed in transfected cells
# TLR2 [3] = molecular target: T1, TLR2; format: cell-based; remark: listed apart in the source
# T1 sequence (O60603 21-784, species assumed): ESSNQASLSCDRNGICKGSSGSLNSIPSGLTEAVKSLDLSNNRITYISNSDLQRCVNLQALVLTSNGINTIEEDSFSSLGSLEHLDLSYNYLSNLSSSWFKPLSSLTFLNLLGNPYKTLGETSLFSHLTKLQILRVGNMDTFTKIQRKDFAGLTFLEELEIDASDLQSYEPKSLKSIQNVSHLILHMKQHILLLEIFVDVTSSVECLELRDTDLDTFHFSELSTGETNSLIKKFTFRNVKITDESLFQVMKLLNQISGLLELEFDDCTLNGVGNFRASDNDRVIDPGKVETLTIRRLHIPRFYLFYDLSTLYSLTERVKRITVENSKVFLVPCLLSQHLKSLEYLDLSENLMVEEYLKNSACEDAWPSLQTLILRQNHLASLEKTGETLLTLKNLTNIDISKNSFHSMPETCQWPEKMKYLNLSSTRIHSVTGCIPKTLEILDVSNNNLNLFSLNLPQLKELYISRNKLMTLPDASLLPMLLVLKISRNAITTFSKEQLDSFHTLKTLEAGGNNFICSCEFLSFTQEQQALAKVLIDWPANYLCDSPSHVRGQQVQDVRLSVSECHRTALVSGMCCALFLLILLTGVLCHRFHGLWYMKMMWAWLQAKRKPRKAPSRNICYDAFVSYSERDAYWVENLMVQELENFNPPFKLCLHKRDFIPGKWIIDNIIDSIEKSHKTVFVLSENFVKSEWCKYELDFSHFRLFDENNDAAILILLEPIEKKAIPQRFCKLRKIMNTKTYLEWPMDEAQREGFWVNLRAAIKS
# T1 sequence (Q15399 25-786, species assumed): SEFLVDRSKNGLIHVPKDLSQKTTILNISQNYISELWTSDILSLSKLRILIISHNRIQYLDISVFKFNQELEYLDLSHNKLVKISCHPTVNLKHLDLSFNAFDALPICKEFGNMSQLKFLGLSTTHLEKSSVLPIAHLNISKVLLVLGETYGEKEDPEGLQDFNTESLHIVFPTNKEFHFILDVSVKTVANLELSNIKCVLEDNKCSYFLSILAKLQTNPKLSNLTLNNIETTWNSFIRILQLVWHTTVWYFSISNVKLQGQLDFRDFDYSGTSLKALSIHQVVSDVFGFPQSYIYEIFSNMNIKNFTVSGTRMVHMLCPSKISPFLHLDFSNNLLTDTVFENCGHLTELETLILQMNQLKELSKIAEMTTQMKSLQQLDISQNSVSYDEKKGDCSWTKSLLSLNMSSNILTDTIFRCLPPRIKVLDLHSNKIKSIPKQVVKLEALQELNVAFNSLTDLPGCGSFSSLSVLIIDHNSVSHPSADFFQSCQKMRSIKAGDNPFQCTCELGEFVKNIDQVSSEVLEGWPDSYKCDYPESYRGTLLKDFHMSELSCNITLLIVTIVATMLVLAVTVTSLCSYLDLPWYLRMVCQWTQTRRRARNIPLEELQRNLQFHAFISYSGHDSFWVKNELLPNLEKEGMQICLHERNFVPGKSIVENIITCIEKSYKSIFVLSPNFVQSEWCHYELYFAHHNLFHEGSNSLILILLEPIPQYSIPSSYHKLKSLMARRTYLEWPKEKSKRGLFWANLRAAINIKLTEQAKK
Molecule,TLR dependence of macrophage TNFα response [1],further results
CpG ODN 1826,intact in knockout cell lines; also recorded: All macrophage types responded,
FSL-1,"dependent on TLR2 and TLR6, but not TLR1",
"LprG: Mtb lipoprotein LprG (SEQ ID NO: 2), recombinant 6×His-tagged acylated form (protein, listed as Mycobacterium smegmatis, 6xHis tag; acylated) MLGMQTRRRLSAVFASLTLATALIAGCSSGSKQSGAPLPDPTSLVKQSADATKNVKSVHLVLSIQGKISGLPIKTLTGDLTTTPATAAKGNATITLGGSDIDANFVVVDGTLYATLTPNKWSDFGKASDIYDVSVLLNPDNGLGNALANFSNAKAEGRETINGQSTIRISGNVSADAVNKIMPQFNATQPVPSTVWVQETGDHQLVQANLQKSSGNSVQVTLSNWGEQVQVTKPPVSS",,"TLR2 agonist activity (IL-8 response) (TLR2 [2]): dose-dependent IL-8 response; also recorded: more potent TLR2 agonist than a homologous Mtb lipoprotein, LprA"
"Acylated LprG-V91W: acylated LprG with the V91W mutation of the putative glycolipid binding site (protein, UniProt P9WK45 27-236, looked up, variant V91W) Lipoarabinomannan carrier …: CSSGSKPSGGPLPDAKPLVEEATAQTKALKSAHMVLTVNGKIPGLSLKTLSGDLTTNPTAATGNWKLTLGGSDIDADFVVFDGILYATLTPNQWSDFGPAADIYDPAQVLNPDTGLANVLANFADAKAEGRDTINGQNTIRISGKVSAQAVNQIAPPFNATQPVPATVWIQETGDHQLAQAQLDRGSGNSVQMTLSKWGEKVQVTKPPVS",,TLR2 agonist activity of acylated protein (TLR2 [3]): significantly less potent than wild-type acylated LprG
